Data taken from ChEMBL document CHEMBL4706518, “Discovery of MGS0274, an ester prodrug of a metabotropic glutamate receptor 2/3 agonist with improved oral bioavailability” (Eur J Med Chem, 2020).
Values belong to the compound of their own block, whether it stands above or below them. Calls of active or inactive are those of the source. No cut-off for these calls is given here.

Experiments:
[1] = target: Histamine H3 receptor (Homo sapiens) (UniProt Q9Y5N1); test: Binding affinity to H3 receptor (unknown origin) 10 umol/L by radioligand binding assay; details: dose 10.0 µmol/L
[2] = target: Androgen receptor (Homo sapiens) (UniProt P10275); test: Binding affinity to androgen receptor (unknown origin) 10 umol/L by radioligand binding assay; details: dose 10.0 µmol/L
Homo sapiens [3] = species on record: Homo sapiens; test: Binding affinity to GABAA receptor agonist site (unknown origin) 10 umol/L by radioligand binding assay; details: dose 10.0 µmol/L
[4] = target: Adenosine receptor A1 (Homo sapiens) (UniProt P30542); test: Binding affinity to A1 receptor (unknown origin) at 10 umol/L by radioligand binding assay; details: dose 10.0 µmol/L
[5] = target: Endothelin receptor type B (Homo sapiens) (UniProt P24530); test: Binding affinity to ETB receptor (unknown origin) 10 umol/L by radioligand binding assay; details: dose 10.0 µmol/L
Homo sapiens [6] = species on record: Homo sapiens; test: Binding affinity to NMDA receptor agonist site (unknown origin) 10 umol/L by radioligand binding assay; details: dose 10.0 µmol/L
Homo sapiens [7] = species on record: Homo sapiens; test: Binding affinity to estrogen receptor (unknown origin) 10 umol/L by radioligand binding assay; details: dose 10.0 µmol/L
Homo sapiens [8] = species on record: Homo sapiens; test: Binding affinity to Kainate receptor (unknown origin) 10 umol/L by radioligand binding assay; details: dose 10.0 µmol/L
Homo sapiens [9] = species on record: Homo sapiens; test: Binding affinity to AMPA receptor (unknown origin) 10 umol/L by radioligand binding assay; details: dose 10.0 µmol/L
[10] = target: Beta-2 adrenergic receptor (Homo sapiens) (UniProt P07550); test: Binding affinity to beta2 adrenoreceptor (unknown origin) 10 umol/L by radioligand binding assay; details: dose 10.0 µmol/L
[11] = target: Glucocorticoid receptor (Homo sapiens) (UniProt P04150); test: Binding affinity to glucocorticoid receptor (unknown origin) 10 umol/L by radioligand binding assay; details: dose 10.0 µmol/L
[12] = target: Beta-1 adrenergic receptor (Homo sapiens) (UniProt P08588); test: Binding affinity to beta1 adrenoreceptor (unknown origin) 10 umol/L by radioligand binding assay; details: dose 10.0 µmol/L
Homo sapiens [13] = species on record: Homo sapiens; test: Binding affinity to NMDA receptor glycine site (unknown origin) 10 umol/L by radioligand binding assay; details: dose 10.0 µmol/L
[14] = target: Sodium-dependent serotonin transporter (Homo sapiens) (UniProt P31645); test: Inhibition of serotonin transporter (unknown origin) 10 umol/L by radioligand binding assay relative to control; details: dose 10.0 µmol/L
[15] = target: Vasopressin V2 receptor (Homo sapiens) (UniProt P30518); test: Binding affinity to Vasopressin V2 receptor (unknown origin) 10 umol/L by radioligand binding assay; details: dose 10.0 µmol/L
[16] = target: 5-hydroxytryptamine receptor 2A (Homo sapiens) (UniProt P28223); test: Binding affinity to 5-HT2A receptor (unknown origin) 10 umol/L by radioligand binding assay; details: dose 10.0 µmol/L
[17] = target: Corticotropin-releasing factor receptor 1 (Homo sapiens) (UniProt P34998); test: Binding affinity to CRF1(unknown origin) 10 umol/L by radioligand binding assay; details: dose 10.0 µmol/L
[18] = target: 5-hydroxytryptamine receptor 1A (Homo sapiens) (UniProt P08908); test: Binding affinity to 5-HT1A receptor (unknown origin) 10 umol/L by radioligand binding assay; details: dose 10.0 µmol/L
Homo sapiens [19] = species on record: Homo sapiens; test: Binding affinity to ATP-sensitive inward rectifier potassium channel (unknown origin) 10 umol/L by radioligand binding assay; details: dose 10.0 µmol/L
[20] = target: Histamine H1 receptor (Homo sapiens) (UniProt P35367); test: Binding affinity to H1 receptor (unknown origin) 10 umol/L by radioligand binding assay; details: dose 10.0 µmol/L
[21] = target: Muscarinic acetylcholine receptor M3 (Homo sapiens) (UniProt P20309); test: Binding affinity to muscarinic M3 (unknown origin) 10 umol/L by radioligand binding assay; details: dose 10.0 µmol/L
Homo sapiens [22] = species on record: Homo sapiens; test: Binding affinity to Leukotriene B4 receptor (unknown origin) 10 umol/L by radioligand binding assay; details: dose 10.0 µmol/L
Homo sapiens [23] = species on record: Homo sapiens; test: Binding affinity to adenosine transporter (unknown origin) at 10 umol/L by radioligand binding assay; details: dose 10.0 µmol/L
[24] = target: Neuropeptide Y receptor type 1 (Homo sapiens) (UniProt P25929); test: Binding affinity to Y1 receptor (unknown origin) 10 umol/L by radioligand binding assay; details: dose 10.0 µmol/L
[25] = target: Metabotropic glutamate receptor 3 (Homo sapiens, UniProt Q14832); test: Agonist activity at human mGlu3 receptor expressed in CHO cell membranes by GTPgammaS binding assay relative to control; type: functional
[26] = target: Histamine H2 receptor (Homo sapiens) (UniProt P25021); test: Binding affinity to H2 receptor (unknown origin) 10 umol/L by radioligand binding assay; details: dose 10.0 µmol/L
[27] = target: Alpha-2C adrenergic receptor (Homo sapiens) (UniProt P18825); test: Binding affinity to alpha2C adrenoreceptor (unknown origin) 10 umol/L by radioligand binding assay; details: dose 10.0 µmol/L
Homo sapiens [28] = species on record: Homo sapiens; test: Binding affinity to glycine receptor strychnine-sensitive binding site (unknown origin) 10 umol/L by radioligand binding assay; details: dose 10.0 µmol/L
[29] = target: D(2) dopamine receptor (Homo sapiens) (UniProt P14416); test: Binding affinity to D2S receptor (unknown origin) 10 umol/L by radioligand binding assay; details: dose 10.0 µmol/L
[30] = target: Mu-type opioid receptor (Homo sapiens) (UniProt P35372); test: Binding affinity to mu receptor (unknown origin) 10 umol/L by radioligand binding assay; details: dose 10.0 µmol/L
[31] = target: T1, Voltage-gated L-type calcium channel (Homo sapiens, UniProt Q13936+Q13698+Q01668+O60840); test: Binding affinity to Voltage-dependent L-type calcium channel benzothiazepine site (unknown origin) 10 umol/L by radioligand binding assay; type: protein assay; details: 10 µM, dose 10 µmol/L
[32] = target: Cholecystokinin receptor type A (Homo sapiens) (UniProt P32238); test: Binding affinity to CCKA (unknown origin) 10 umol/L by radioligand binding assay; details: dose 10.0 µmol/L
[33] = target: Alpha-2A adrenergic receptor (Homo sapiens) (UniProt P08913); test: Binding affinity to alpha2A adrenoreceptor (unknown origin) 10 umol/L by radioligand binding assay; details: dose 10.0 µmol/L
Homo sapiens [34] = species on record: Homo sapiens; test: Binding affinity to GABAA receptor BZ central (unknown origin) 10 umol/L by radioligand binding assay; details: dose 10.0 µmol/L
[35] = target: T1, Voltage-gated L-type calcium channel; test: Binding affinity to Voltage-dependent L-type calcium channel phenylalkylamine site (unknown origin) 10 umol/L by radioligand binding assay; type: protein assay; details: 10 µM, dose 10 µmol/L
[36] = target: Gastrin/cholecystokinin type B receptor (Homo sapiens) (UniProt P32239); test: Binding affinity to CCKB (unknown origin) 10 umol/L by radioligand binding assay; details: dose 10.0 µmol/L
[37] = target: D(3) dopamine receptor (Homo sapiens) (UniProt P35462); test: Binding affinity to D3 receptor (unknown origin) 10 umol/L by radioligand binding assay; details: dose 10.0 µmol/L
[38] = target: Cannabinoid receptor 2 (Homo sapiens) (UniProt P34972); test: Binding affinity to CB2 (unknown origin) 10 umol/L by radioligand binding assay; details: dose 10.0 µmol/L
[39] = target: Sodium-dependent dopamine transporter (Homo sapiens) (UniProt Q01959); test: Binding affinity to dopamine transporter (unknown origin) 10 umol/L by radioligand binding assay; details: dose 10.0 µmol/L
[40] = target: D(1A) dopamine receptor (Homo sapiens) (UniProt P21728); test: Binding affinity to D1 receptor (unknown origin) 10 umol/L by radioligand binding assay; details: dose 10.0 µmol/L
[41] = target: Substance-P receptor (Homo sapiens) (UniProt P25103); test: Binding affinity to NK1 receptor (unknown origin) 10 umol/L by radioligand binding assay; details: dose 10.0 µmol/L
[42] = target: B1 bradykinin receptor (Homo sapiens) (UniProt P46663); test: Binding affinity to B1 receptor (unknown origin) 10 umol/L by radioligand binding assay; details: dose 10.0 µmol/L
Homo sapiens [43] = species on record: Homo sapiens; test: Binding affinity to GABA transporter (unknown origin) 10 umol/L by radioligand binding assay; details: dose 10.0 µmol/L

Sodium-dependent dopamine transporter (Homo sapiens), sequence (Q01959 whole entry): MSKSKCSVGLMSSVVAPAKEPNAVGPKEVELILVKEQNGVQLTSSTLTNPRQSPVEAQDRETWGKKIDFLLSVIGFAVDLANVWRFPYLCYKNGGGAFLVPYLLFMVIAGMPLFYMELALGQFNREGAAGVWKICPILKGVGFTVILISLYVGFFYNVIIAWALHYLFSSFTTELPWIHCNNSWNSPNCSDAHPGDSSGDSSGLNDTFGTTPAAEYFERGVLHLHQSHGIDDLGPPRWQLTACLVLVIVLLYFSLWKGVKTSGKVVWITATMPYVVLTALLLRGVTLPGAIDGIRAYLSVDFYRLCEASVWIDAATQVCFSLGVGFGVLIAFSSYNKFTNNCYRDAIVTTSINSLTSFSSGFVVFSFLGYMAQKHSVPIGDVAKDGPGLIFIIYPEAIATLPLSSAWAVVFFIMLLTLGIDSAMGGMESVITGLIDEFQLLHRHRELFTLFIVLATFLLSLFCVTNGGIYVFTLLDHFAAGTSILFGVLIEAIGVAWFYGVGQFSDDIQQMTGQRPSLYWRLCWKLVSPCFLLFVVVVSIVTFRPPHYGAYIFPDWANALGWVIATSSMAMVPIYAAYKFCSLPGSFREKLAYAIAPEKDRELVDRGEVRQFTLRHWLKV
Endothelin receptor type B (Homo sapiens), sequence (P24530 whole entry): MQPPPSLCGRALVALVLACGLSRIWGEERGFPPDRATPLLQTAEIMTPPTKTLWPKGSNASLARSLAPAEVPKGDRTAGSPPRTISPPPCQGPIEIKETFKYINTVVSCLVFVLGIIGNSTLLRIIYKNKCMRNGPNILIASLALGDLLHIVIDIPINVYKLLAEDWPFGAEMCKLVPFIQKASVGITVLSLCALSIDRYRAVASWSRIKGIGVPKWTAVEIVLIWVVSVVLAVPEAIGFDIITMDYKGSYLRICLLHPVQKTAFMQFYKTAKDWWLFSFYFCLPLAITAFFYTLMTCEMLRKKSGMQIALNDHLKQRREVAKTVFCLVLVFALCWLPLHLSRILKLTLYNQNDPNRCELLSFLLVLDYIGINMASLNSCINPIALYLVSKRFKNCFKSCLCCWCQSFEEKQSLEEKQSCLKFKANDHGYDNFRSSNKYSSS
Neuropeptide Y receptor type 1 (Homo sapiens), sequence (P25929 whole entry): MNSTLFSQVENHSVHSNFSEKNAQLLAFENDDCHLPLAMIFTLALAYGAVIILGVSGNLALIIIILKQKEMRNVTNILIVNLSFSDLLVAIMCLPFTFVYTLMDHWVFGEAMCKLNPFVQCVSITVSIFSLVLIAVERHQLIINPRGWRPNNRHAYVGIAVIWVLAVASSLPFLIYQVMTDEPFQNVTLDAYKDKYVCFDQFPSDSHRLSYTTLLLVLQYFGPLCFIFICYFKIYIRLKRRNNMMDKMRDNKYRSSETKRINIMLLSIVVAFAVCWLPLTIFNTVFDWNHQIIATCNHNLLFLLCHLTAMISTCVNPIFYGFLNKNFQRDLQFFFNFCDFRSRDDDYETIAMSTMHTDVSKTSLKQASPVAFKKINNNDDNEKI
Androgen receptor (Homo sapiens), sequence (P10275 whole entry): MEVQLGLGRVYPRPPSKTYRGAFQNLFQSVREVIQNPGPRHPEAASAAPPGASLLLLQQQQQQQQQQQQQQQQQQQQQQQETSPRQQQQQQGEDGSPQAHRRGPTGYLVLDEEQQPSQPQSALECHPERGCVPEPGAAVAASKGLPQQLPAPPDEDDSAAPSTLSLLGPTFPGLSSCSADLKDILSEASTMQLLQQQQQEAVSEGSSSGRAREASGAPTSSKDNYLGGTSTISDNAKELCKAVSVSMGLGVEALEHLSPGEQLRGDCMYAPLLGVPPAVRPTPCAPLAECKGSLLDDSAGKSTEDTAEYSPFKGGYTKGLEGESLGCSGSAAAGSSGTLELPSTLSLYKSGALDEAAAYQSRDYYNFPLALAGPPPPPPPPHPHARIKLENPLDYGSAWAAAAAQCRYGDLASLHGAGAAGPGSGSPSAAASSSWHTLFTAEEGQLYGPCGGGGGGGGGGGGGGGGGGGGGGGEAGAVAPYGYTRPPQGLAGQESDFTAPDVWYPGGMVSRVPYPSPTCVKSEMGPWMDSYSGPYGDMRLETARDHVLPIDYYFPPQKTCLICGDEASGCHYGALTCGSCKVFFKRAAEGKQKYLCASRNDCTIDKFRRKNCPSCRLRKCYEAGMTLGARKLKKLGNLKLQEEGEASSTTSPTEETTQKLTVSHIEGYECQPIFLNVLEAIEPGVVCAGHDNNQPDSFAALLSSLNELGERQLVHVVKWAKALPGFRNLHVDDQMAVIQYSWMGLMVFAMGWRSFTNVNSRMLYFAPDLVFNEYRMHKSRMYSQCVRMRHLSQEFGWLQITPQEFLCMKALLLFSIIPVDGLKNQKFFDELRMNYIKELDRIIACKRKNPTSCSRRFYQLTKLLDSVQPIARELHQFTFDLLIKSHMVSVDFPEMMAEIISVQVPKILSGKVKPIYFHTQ
Gastrin/cholecystokinin type B receptor (Homo sapiens), sequence (P32239 whole entry): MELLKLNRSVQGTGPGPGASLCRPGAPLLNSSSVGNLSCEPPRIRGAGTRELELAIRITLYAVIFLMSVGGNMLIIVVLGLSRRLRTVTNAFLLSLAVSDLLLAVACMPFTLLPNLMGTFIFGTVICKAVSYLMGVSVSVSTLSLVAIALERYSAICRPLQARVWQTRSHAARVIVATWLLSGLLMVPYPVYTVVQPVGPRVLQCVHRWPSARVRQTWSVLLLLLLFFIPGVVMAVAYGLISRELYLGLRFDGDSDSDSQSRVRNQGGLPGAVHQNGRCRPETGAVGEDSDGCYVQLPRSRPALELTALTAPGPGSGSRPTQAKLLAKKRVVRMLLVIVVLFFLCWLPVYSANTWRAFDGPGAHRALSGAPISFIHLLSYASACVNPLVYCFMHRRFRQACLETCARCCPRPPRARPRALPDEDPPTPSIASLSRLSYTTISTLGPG
Adenosine receptor A1 (Homo sapiens), sequence (P30542 whole entry): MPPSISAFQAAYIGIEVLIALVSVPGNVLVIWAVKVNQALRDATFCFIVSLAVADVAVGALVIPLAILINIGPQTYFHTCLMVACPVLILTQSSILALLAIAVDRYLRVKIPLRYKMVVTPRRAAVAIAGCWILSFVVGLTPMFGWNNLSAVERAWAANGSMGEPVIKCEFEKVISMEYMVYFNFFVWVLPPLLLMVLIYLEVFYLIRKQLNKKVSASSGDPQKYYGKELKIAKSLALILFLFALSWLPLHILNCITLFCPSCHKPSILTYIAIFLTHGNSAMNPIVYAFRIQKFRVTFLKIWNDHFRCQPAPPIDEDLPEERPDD
Corticotropin-releasing factor receptor 1 (Homo sapiens), sequence (P34998 whole entry): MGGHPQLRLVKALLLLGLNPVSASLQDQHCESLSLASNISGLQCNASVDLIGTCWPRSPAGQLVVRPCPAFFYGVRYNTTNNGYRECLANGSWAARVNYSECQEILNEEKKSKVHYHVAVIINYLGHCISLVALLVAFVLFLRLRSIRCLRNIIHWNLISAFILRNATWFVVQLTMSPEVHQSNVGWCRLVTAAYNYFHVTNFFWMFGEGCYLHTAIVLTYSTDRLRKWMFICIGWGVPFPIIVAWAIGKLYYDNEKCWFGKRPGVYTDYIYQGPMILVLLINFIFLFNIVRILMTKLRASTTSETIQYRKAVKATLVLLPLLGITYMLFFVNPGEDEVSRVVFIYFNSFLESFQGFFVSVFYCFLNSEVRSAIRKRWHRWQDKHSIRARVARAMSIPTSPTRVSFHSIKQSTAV
D(2) dopamine receptor (Homo sapiens), sequence (P14416 whole entry): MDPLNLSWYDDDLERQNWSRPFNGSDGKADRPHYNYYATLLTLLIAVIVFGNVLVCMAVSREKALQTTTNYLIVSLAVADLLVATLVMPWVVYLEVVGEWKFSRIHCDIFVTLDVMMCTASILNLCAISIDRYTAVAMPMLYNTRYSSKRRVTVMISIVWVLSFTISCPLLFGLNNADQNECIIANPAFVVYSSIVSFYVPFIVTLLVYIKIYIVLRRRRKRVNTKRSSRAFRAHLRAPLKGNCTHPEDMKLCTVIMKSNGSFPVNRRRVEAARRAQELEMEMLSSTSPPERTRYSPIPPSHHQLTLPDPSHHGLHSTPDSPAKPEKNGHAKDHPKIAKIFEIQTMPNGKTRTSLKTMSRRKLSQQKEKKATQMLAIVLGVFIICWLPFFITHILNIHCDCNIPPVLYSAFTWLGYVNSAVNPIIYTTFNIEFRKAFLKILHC
Histamine H3 receptor (Homo sapiens), sequence (Q9Y5N1 whole entry): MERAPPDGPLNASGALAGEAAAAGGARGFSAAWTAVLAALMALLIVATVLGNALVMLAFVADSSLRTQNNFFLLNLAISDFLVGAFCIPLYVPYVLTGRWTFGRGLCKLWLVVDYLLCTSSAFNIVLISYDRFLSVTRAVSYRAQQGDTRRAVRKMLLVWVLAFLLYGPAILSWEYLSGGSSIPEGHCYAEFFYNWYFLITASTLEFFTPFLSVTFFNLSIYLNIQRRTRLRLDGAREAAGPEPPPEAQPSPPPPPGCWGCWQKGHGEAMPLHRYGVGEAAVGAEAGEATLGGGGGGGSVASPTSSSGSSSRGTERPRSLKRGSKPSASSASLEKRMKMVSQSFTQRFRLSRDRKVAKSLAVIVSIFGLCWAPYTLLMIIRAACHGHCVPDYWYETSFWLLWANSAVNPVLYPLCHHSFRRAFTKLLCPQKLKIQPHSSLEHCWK
Alpha-2C adrenergic receptor (Homo sapiens), sequence (P18825 whole entry): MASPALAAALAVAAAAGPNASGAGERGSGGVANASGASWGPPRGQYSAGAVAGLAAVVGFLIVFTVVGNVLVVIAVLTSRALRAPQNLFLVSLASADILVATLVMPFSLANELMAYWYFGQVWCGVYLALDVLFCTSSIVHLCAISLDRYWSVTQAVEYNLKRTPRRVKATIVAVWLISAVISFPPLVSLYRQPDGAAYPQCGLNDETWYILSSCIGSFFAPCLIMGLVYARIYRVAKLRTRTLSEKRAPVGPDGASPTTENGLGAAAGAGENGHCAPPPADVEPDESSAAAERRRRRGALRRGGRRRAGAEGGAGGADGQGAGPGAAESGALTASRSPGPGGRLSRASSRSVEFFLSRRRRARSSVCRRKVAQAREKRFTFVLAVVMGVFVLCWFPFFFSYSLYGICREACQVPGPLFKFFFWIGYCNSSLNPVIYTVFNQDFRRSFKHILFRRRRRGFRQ

Activity [1]: inactive
Activity [2]: inactive
Activity (Homo sapiens [3]): inactive
Activity [4]: inactive
Activity [5]: inactive
Activity (Homo sapiens [6]): inactive
Activity (Homo sapiens [7]): inactive
Activity (Homo sapiens [8]): inactive
Activity (Homo sapiens [9]): inactive
Activity [10]: inactive
Activity [11]: inactive
Activity [12]: inactive
Activity (Homo sapiens [13]): inactive
inhibition [14]: inactive
Activity [15]: inactive
Activity [16]: inactive
Activity [17]: inactive
Activity [18]: inactive
Activity (Homo sapiens [19]): inactive
Activity [20]: inactive
Activity [21]: inactive
Activity (Homo sapiens [22]): inactive
Activity (Homo sapiens [23]): inactive
Activity [24]: inactive
Emax ([25]; Cell membrane, filed as agonist): 102%
Activity [26]: inactive
Activity [27]: inactive
Activity (Homo sapiens [28]): inactive
Activity [29]: inactive
Activity [30]: inactive
Activity [31]: Not Active
Activity [32]: inactive
Activity [33]: inactive
Activity (Homo sapiens [34]): inactive
Activity [35]: Not Active
Activity [36]: inactive
Activity [37]: inactive
Activity [38]: inactive
Activity [39]: inactive
Activity [40]: inactive
Activity [41]: inactive
Activity [42]: inactive
Activity (Homo sapiens [43]): inactive
SMILES: N[C@]1(C(=O)O)[C@H]2[C@@H](C[C@@H]1F)[C@@H]2C(=O)O

Activity [1]: inactive
Activity [2]: inactive
Activity (Homo sapiens [3]): inactive
Activity [4]: inactive
Activity [5]: inactive
Activity (Homo sapiens [6]): inactive
Activity (Homo sapiens [7]): inactive
Activity (Homo sapiens [8]): inactive
Activity (Homo sapiens [9]): inactive
Activity [10]: inactive
Activity [11]: inactive
Activity [12]: inactive
Activity (Homo sapiens [13]): inactive
inhibition [14]: 76%
Activity [15]: inactive
Activity [16]: inactive
Activity [17]: inactive
Activity [18]: inactive
Activity (Homo sapiens [19]): inactive
Activity [20]: inactive
Activity [21]: inactive
Activity (Homo sapiens [22]): inactive
Activity (Homo sapiens [23]): inactive
Activity [24]: inactive
EC50 [25]: > 30 µM
Activity [26]: inactive
Activity [27]: inactive
Activity (Homo sapiens [28]): inactive
Activity [29]: inactive
Activity [30]: inactive
Activity [31]: Not Active
Activity [32]: inactive
Activity [33]: inactive
Activity (Homo sapiens [34]): inactive
Activity [35]: Not Active
Activity [36]: inactive
Activity [37]: inactive
Activity [38]: inactive
Activity [39]: inactive
Activity [40]: inactive
Activity [41]: inactive
Activity [42]: inactive
Activity (Homo sapiens [43]): inactive
SMILES: CC(C)[C@@H]1CC[C@@H](C)C[C@H]1OC(=O)O[C@@H](C)OC(=O)[C@H]1[C@@H]2C[C@H](F)[C@@](N)(C(=O)O)[C@@H]21
